How the values were obtained:
Type in all cases: in vivo
[1] = tested on: Rice water weevil [Lissorhoptrus oryzophilus (Kuschel)]; test: Rice water weevil insecticidal test; conditions: topical, μg per weevil; 48 hours
Method: The compounds in Tables 1 and 2 above were tested for insecticidal activity using the following testing procedures. LC50 values, based on the results of these tests and calculated according to dosage-mortality curves, are expressed in Table 3.
Rice water weevil [Lissorhoptrus oryzophilus (Kuschel)]:
Test compounds were diluted in acetone. Droplets (1 μl) of test solutions were applied to the ventral abdomens of ten female adult weevils. The treated weevils were placed in containers with wet cotton balls and rice foliage. The containers were covered and kept at a temperature of about 25° C. Mortality was recorded after 48 hours. Test concentrations ranged from […] or 2.5 μg per weevil down to that at which 50% mortality occurred. The LC50 values are expressed below in Table 3 under the heading "RWW" in terms of μg of test compound per weevil.

[2] = tested on: Tobacco Budworm [Heliothis virescens (Fabricius)] larvae; test: Tobacco budworm contact test; conditions: second-instar larvae, percent in solution, 5 days
Procedure, shortened: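 Cotton cotyledons dipped 2–3 s in compound in 50-50 acetone-water, dried, then infested with 5 second-instar larvae and held 5 days at high humidity. Mortality scored; LC50 from dosage-mortality curves, expressed as percent compound in solution, concentrations from 0.1% downward.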

[3] = tested on: Housefly [Musca domestica]; test: Housefly insecticidal test; conditions: μg per 25 female flies; mortality after 48 hours
Procedure, shortened: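 Dose range started at 100 μg per 25 female flies and went downward. Insects (1-2 days old) contacted a dried acetone/peanut-oil deposit in dishes; LC50 values come from dosage-mortality curves at 48 h.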

[4] = tested on: Beet Armyworm (Spodoptera exigua); test: Beet armyworm insecticidal test; conditions: second-instar larvae, percent in solution; five days
Procedure, shortened: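 Sugar beet leaves dipped 2–3 s in compound diluted in 50:50 acetone-water, dried, then infested with five second-instar larvae in humid petri dishes. Mortality scored at 5 days; concentrations from 0.1% downward. LC50 from dosage-mortality curves, expressed as percent compound in solution.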

[5] = tested on: Tobacco Budworm [Heliothis virescens (Fabricius)] eggs; test: Tobacco budworm egg test; conditions: 2-day old eggs, percent in solution
Procedure, shortened: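 LC50 is given as percent compound in the dipping solution, fitted from dosage-mortality curves. Two-day-old eggs on paper towel were dipped in acetone solutions (top concentration 0.1%), kept at 78° F on rearing medium, and scored after control hatch and larval feeding.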

[6] = tested on: Cabbage Looper [Trichoplusia ni (Hubner)]; test: Cabbage looper insecticidal test; conditions: second-instar larvae, percent in solution; 3-5 days
Procedure, shortened: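 LC50, as percent test compound in solution, derived from dosage-mortality curves; concentrations started at 0.1% and went lower. Five second-instar larvae per dish fed on acetone-water-dipped, dried squash cotyledons in a humid chamber. Deaths recorded 3-5 days post-infestation.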

[7] = tested on: Maize weevil [Sitophilus Zeamais (Motschulsky)]; test: Maize weevil insecticidal test; conditions: adult weevils, percent in solution; 48 hours
Procedure, shortened: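 LC50, in percent of compound in solution, was derived from dosage-mortality curves after 48 h at about 25 °C. Ten adult weevils per container fed on four corn seeds briefly immersed in acetone:water (50:50) solutions of up to 0.01% and dried.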

[8] = tested on: Aster Leafhopper [Macrosteles fascifrens (Stal)]; test: Aster leafhopper insecticidal test; conditions: adults/nymphs, percent in solution; 48 hours
Procedure, shortened: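 Three ~10 cm oat seedlings per cup were dipped 2-3 seconds in 50-50 acetone-water compound solutions, dried, and caged with ten adult/nymph leafhoppers. Mortality was counted after 48 hours at concentrations from 0.05% downward. LC50, as percent compound in solution, came from dosage-mortality curves.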

Row | Compound | LC50, RWW [1] | LC50, TBW, C (TBW-C) [2] | LC50, HF [3] | LC50, BAW [4] | LC50, TBW, E (TBW-E) [5] | LC50, CL [6] | LC50, MW [7] | LC50, LH [8]
1 | CC(C)C(=Nc1ccc(C(F)(F)F)cc1)OCc1ccc(F)c(Oc2ccc(Cl)cc2)c1 [Compound 324] | 0.06 µg | 0.0004% | > 100 µg | 0.0024% | 0.025% | 0.00014% |  | 
2 | CC(C)C(=Nc1ccc2c(c1)OC(F)(F)O2)OCc1ccc(F)c(Oc2ccccc2)c1 [Compound 285] | 0.13 µg | 0.00017% | 36 µg | 0.0006% | 0.005% | 0.000075% | 0.005% | 
3 | CC(C)C(=Nc1ccc(F)c(Cl)c1F)OCc1ccc(F)c(Oc2ccccc2)c1 [Compound 451] | 0.065 µg | 0.00025% | 3.6 µg |  | > 0.1% | 0.0001% | 0.0051% | 0.0002%
4 | CC(C)C(=Nc1ccc(OC(F)(F)F)cc1)OCc1ccc(F)c(Oc2ccccc2)c1 [Compound 338] | 0.044 µg | 0.00037% | 26 µg |  | 0.01% | 0.000065% | 0.0053% | 
5 | CC(C)C(=Nc1ccc2c(c1)OC(F)(F)O2)OCc1cccc(Oc2ccccc2)c1 [Compound 245] | > 2.5 µg | 0.0015% | 20 µg | 0.001% | 0.016% | 0.0035% | 0.006% | 
6 | CC(C)C(=Nc1ccc(F)c(Cl)c1)OCc1cccc(Oc2ccc(F)cc2)n1 [Compound 461] | > 2.5 µg |  | 6 µg | 0.0035% | 0.01% | 0.00008% | 0.0075% | 
7 | CC(C)C(=Nc1ccc(F)c(Br)c1)OCc1ccc(F)c(Oc2ccc(Cl)cc2)c1 [Compound 298] | > 2.5 µg | 0.0008% | 13 µg |  | 0.015% | 0.0001% | 0.008% | 0.0001%
8 | CC(C)C(=Nc1c(F)c(F)c(F)c(F)c1F)OCc1cccc(Oc2ccc(F)cc2)c1 [Compound 198] | > 2.5 µg |  | 52 µg |  | > 0.1% | 0.0005% | 0.003% | 0.05%
9 | CC(C)C(=Nc1ccc(F)cc1)OCc1ccc(F)c(Oc2ccc(Cl)cc2)c1 [Compound 325] | > 2.5 µg | 0.0006% | 5 µg | 0.0025% | 0.037% | 0.00012% |  | 
10 | CC(C)C(=Nc1ccc2c(c1)OC(F)(F)O2)OCc1cccc(Oc2ccc(F)cc2)c1 [Compound 244] | 0.09 µg | 0.00025% | 14 µg | 0.002% | > 0.1% | 0.00004% | 0.0025% | 
11 | CC(C)C(=Nc1ccc(F)c(C(F)(F)F)c1)OCc1ccc(F)c(Oc2ccccc2)c1 [Compound 300] | 0.075 µg | 0.001% | 14 µg |  | 0.024% | 0.0003% | 0.01% | 0.00002%
12 | CCC(=Nc1ccc(F)c(Cl)c1)OCc1cccc(Oc2ccccc2)c1 [Compound 85] | > 2.5 µg |  | 7 µg |  | > 0.1% | 0.004% | > 0.01% | 0.003%
13 | FC(F)(F)c1cccc(N=C(OCc2cccc(Oc3ccccc3)c2)C(Cl)Cl)c1 [Compound 66] | > 2.5 µg |  | 9.7 µg | 0.0065% | 0.06% | < 0.0025% |  | 0.001%
14 | CC(C)C(=Nc1ccc(F)c(F)c1)OCc1ccc(F)c(Oc2ccc(Cl)cc2)c1 [Compound 295] | > 2.5 µg | 0.0005% | 7.8 µg |  | 0.01% | 0.00004% | 0.0053% | 0.0001%
15 | CC(C)C(=Nc1ccc(F)c(Cl)c1F)OCc1cccc(Oc2ccc(Cl)cc2)c1 [Compound 331] | > 2.5 µg | 0.0004% | 20 µg | 0.002% | 0.04% | 0.0002% |  | 
16 | CC(C)C(=Nc1ccc(Cl)c(Cl)c1)OCc1ccc(F)c(Oc2ccc(Cl)cc2)c1 [Compound 296] | 0.14 µg | 0.00045% | 38 µg |  | 0.025% | 0.00025% |  | 0.0003%
17 | CC(C)C(=Nc1ccc(Cl)c(Cl)c1)OCc1ccc(F)c(Oc2ccc(F)cc2)c1 [Compound 289] | 0.082 µg |  | 10 µg |  | 0.006% | 0.00007% | > 0.01% | 0.0003%
18 | CC(C)C(=Nc1ccc(F)c(Cl)c1F)OCc1ccc(F)c(Oc2ccc(F)cc2)c1 [Compound 330] | 0.06 µg | 0.00035% | 5 µg |  | 0.037% | 0.00012% | 0.001% | < 0.05%

— patent US5070210A, “Novel ketenimines as intermediates for insecticides” (ICI Americas Inc., priority 1990, dated 1991)
